We go through five compounds from patent US20180110824A1, “Macrocyclic Modulators of the Ghrelin Receptor” (Ocera Therapeutics, Inc., priority 2016, published 2018).

Like-named read-outs stand apart in the source and are kept apart here. Bounds are passed on as bounds.

The target of series [1] is T1, human ghrelin receptor (hGHS-R1a) (Homo sapiens, UniProt Q92847).
T1 construct: host or cells: CHO-K1 co-expressing Gα16 and mitochondrially targeted aequorin
Nature of the series: Aequorin functional assay (ghrelin receptor), CHO-K1 cells co-expressing Gα16 and aequorin. The conditions noted are these: Table 4, functional (agonist) activity, TFA salts unless otherwise noted. Format: cell-based. The method, then: This cell line is typically constructed by transfection of the human ghrelin receptor into CHO-K1 cells co-expressing Gα16 and the mitochondrially targeted Aequorin (Ref #ES-WT-A5). • 1. […] Assay buffer: DMEM (Dulbecco's Modified Eagles Medium) containing 0.1% BSA (bovine serum albumin; pH 7.0). • 3. Coelenterazine (Molecular Probes, Leiden, The Netherlands). • Final test concentrations (N=8) for compounds of the invention: 10, 1, 0.3, 0.1, 0.03, 0.01, 0.003, 0.001 μM.
Stock solutions of compounds (10 mM in 100% DMSO) were provided frozen on dry ice and stored at −20° C. prior to use. […] Assay plates were then prepared by appropriate dilution in DMEM medium containing 0.1% BSA. Under these conditions, the maximal final DMSO concentration in the assay was <0.6%.
AequoScreen™ cells were collected from culture plates with Ca^2+ and Mg^2+-free phosphate buffered saline (PBS) supplemented with 5 mM EDTA, pelleted for 2 min at 1000×g re-suspended in DMEM—Ham's F12 containing 0.1% BSA at a density of 5×10^6 cells/mL, and incubated O/N at rt in the presence of 5 μM coelenterazine. After loading, cells were diluted with assay buffer to a concentration of 5×10^5 cells/mL.
For agonist testing, 50 μL of the cell suspension was mixed with 50 μL of the appropriate concentration of test compound or ghrelin (reference agonist) in 96-well plates (duplicate samples). Ghrelin (reference agonist) was tested at several concentrations concurrently with the test compounds in order to validate the experiment. The emission of light resulting from receptor activation in response to ghrelin or test compounds was recorded using the Hamamatsu FDSS 6000 reader (Hamamatsu Photonics K.K., Japan).
Results were expressed as Relative Light Units (RLU). […] EC50, Hill slope and % Emax values are reported.
• 1. Assay performed on CHO-K1 cells expressing the transfected, cloned human ghrelin receptor (hGHS-R1a) and Gα16. • 2. Suspended cells incubated O/N with coelenterazine. • 3. Stimulation of hGHS-R1a activates Gα16, causing […] Ca2+ release which ultimately leads to the oxidation of coelenterazine and the emission of a quantitative luminescent signal. • 4. Ghrelin was used as the positive control. • 5.

Series [2] has as its system gastric emptying in fasted rats. Nature of the series: Gastric emptying in fasted rats (phenol red methylcellulose meal). It counts as in vivo, rat. The method, then:
To examine the effects of compounds of the invention in a model for gastroparesis, compounds were evaluated for possible effects on gastric emptying in fasted rats.
GHRP-6 and test samples were dissolved in vehicle of 9% HPBCD/0.9% NaCl. Immediately following oral administration of methylcellulose (2%) containing phenol red (0.05%) (2 mL/rat), test substances or vehicle (9% HPBCD/0.9% NaCl) were each administered intravenously (i.v.) at a dosing volume of 5 mL/kg.
Male Wistar rats were provided by LASCO (A Charles River Licensee Corporation, Taiwan). Space allocation for 6 animals was 45×23×15 cm. Animals were housed in APEC® cages and maintained in a controlled temperature (22° C.-24° C.) and humidity (60% -80%) environment with 12 h light, 12 h dark cycles for at least one week in the laboratory prior to being used. Free access to standard lab chow for rats (Lab Diet, Rodent Diet, PMI Nutrition International, USA) and tap water was granted. All aspects of this work including housing, experimentation and disposal of animals were performed in general accordance with the Guide for the Care and Use of Laboratory Animals (National Academy Press, Washington, D.C., 1996).
Test substances were each administered intravenously to a group of 5 O/N-fasted Wistar derived male rats weighing 200±20 g immediately after methylcellulose (2%) containing phenol red (0.05%) was administered orally at 2 mL/animal. The animals were then sacrificed 15 minutes later. The stomach was immediately removed, homogenized in 0.1 N NaOH (5 mL) and centrifuged. Following protein precipitation by 20% trichloroacetic acid (0.5 mL)and re-alkalization of the supernatant with 0.1 N NaOH, total phenol red remaining in the stomach was determined by a colorimetric method at 560 nm. A 30 percent or more (≥30%) increase in gastric emptying, detected as the decrease in phenol red concentration in the stomach relative to the vehicle control group, is considered significant.
• 1. Overnight-fasted rats (male Wistar, ˜200 g, N=5/group) were given a meal of methylcellulose (2%) by intragastric gavage. The meal was labeled with phenol red (0.05%). • 2. […] Animals were sacrificed 15 minutes later; the stomach was immediately removed and homogenized in 0.1 N NaOH and centrifuged. • 4. Total phenol red remaining in the stomach was quantified by a colorimetric method at 560 nm. • 5. A >30% increase in gastric emptying, detected based on the phenol red concentration in comparison to the control group, is considered significant.

Series [3] deals with T2, human growth hormone secretagogue receptor (hGHS-R1a) (Homo sapiens, UniProt Q92847).
T2 construct: purchased PerkinElmer BioSignal #RBHGHSM; host or cells: HEK-293, stably transfected
In words: Competitive radioligand binding assay (ghrelin receptor), [125I]-ghrelin displacement on GHS-R/HEK 293 membranes.

A short description of series [4]: Pharmacokinetic analysis in rats (i.v., s.c., p.o.). Format: in vivo. The conditions noted are these: male, Sprague-Dawley, plasma, iv, 2 mg/kg, rat. The method, then:
• 1. Intravenous (i.v.): 2 mg/kg • 2. Subcutaneous (s.c): 2 mg/kg • 3. Oral (p.o.): 8 mg/kg
Whole blood samples were chilled and immediately processed by centrifugation to obtain plasma.
Plasma samples were stored frozen (−70° C.) until analysis.

The test system of series [5] is morphine-delayed gastric emptying and gastrointestinal transit in rats. Nature of the series: Opioid (morphine)-delayed gastric emptying and gastrointestinal transit in rats. Format: in vivo, rat. The conditions noted are these: 3 mg/kg, s.c., rats, FIG. 16A. The text has this:
Opioid analgesics, such as morphine, are well known to delay gastrointestinal transit which is an important side-effect for this class of drugs. The clinical term for this syndrome is opioid bowel dysfunction (OBD). Importantly, patients recovering from abdominal surgery experience post-operative ileus that is further exacerbated by concomitant opioid therapy for post-surgical pain.
• 1. Rats (male, Sprague-Dawley, 250-300 g) are implanted with jugular vein catheters to accommodate dosing of test articles. • 2. Overnight-fasted rats are administered morphine (3 mg/kg s.c.). • 3. […] Radioactivity (^99mTc) in each tissue isolate is measured as a means of measuring the transit of the meal.

Series [6] concerns the target motilin receptor (Homo sapiens, UniProt O43193). In words: Selectivity for the ghrelin receptor versus the motilin receptor. It counts as binding. The text has this: The level of agonist activity and selectivity for representative compounds of the invention are shown below in Table 4.
[7] abbreviates: Table 4, TFA salts unless otherwise noted, read-out: Ki.

T2 sequence (Q92847 whole entry): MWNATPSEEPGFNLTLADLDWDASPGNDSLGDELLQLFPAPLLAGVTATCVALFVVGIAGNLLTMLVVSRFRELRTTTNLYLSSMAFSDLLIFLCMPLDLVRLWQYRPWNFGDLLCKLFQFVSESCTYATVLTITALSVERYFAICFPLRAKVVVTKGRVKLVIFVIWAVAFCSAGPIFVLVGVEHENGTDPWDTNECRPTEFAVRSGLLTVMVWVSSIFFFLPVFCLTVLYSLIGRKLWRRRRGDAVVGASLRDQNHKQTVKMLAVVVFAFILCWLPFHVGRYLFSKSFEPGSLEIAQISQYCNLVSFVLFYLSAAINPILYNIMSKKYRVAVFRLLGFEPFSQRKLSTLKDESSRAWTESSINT
T1 sequence (Q92847 whole entry): as above
Chain of motilin receptor (O43193 whole entry, species assumed): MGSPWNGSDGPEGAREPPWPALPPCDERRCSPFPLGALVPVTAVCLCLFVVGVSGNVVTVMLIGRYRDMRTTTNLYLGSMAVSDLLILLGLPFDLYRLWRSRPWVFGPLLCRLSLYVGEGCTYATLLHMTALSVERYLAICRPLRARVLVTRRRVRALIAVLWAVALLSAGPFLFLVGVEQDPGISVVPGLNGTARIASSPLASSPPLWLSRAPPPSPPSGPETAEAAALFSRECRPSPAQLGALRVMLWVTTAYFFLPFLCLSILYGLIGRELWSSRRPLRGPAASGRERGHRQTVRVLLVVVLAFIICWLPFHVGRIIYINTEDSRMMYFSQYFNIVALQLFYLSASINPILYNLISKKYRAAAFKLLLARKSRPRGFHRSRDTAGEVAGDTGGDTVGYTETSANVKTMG

One may read the EC50 as the concentration needed to bring the measured effect to its halfway point. Broadly, the Ki is the dissociation constant of the complex between target and ligand, obtained from inhibition or displacement. For the compound `CCC(C)[C@@H]1NCCOc2ccccc2CCCNC(=O)[C@@H](Cc2ccc(Cl)cc2)NC(=O)[C@@H](C)N(C)C1=O` (stereo partly drawn) [compound 25], the half-maximal effective concentration (EC50) in series [1] (EC50 (nM)) was in the range of 1 to 100 nM. Besides, the gastric emptying entry in series [2] (30 μg/kg, fasted rats) is recorded as “demonstrated gastric emptying”. The “increase in gastric emptying relative to the vehicle control group” value in series [2] (100 μg/kg i.v., fasted rats) came out at 39%. Further, the inhibitory constant (Ki) in series [3] (Ki (nM), Binding activity at the human ghrelin receptor, [125I]-ghrelin displacement) fell in the range of 0.1 to 10 nM; in series [3] (Ki (nM), Table 4, TFA salts unless otherwise noted) it was 0.1 to 10 nM. This compound registered a clearance in series [4] of 67 mL/min/kg. Also, the half-life in series [4] (read-out: Elimination (t1/2, min)) came out at 31 min.
On to `CN1CC[C@]23c4c5ccc(O)c4O[C@H]2[C@@H](O)C=C[C@H]3[C@H]1C5` [Morphine, morphine, reference compound], for which, in series [5], the “gastric emptying and intestinal transit” value was “significantly delayed gastric emptying and intestinal transit”.
As for `CCN(CC)CCNC(=O)c1cc(Cl)c(N)cc1OC` [metoclopramide, Metoclopramide, reference compound], the “increase in gastric emptying relative to the vehicle control group” value in series [2] (10 mg/kg i.v., fasted rats) is recorded as 41%. Besides, the “gastric emptying of a meal in naïve rat” value in series [2] (i.v., FIGS. 14A and 14B) is “demonstrated significant gastric emptying”.
Take `CCC[C@@H]1NCCOc2ccccc2CCCNC(=O)[C@@H](Cc2ccccc2)NC(=O)CN(C)C1=O` [Compound 10]: the EC50 in series [1] (read-out: EC50) is 1 to 100 nM. For the same compound, the Selectivity in series [6] was 304/1. Further, the inhibitory constant (Ki) was 10 to 100 nM in series [3] (Binding activity at the human ghrelin receptor, [125I]-ghrelin displacement, read-out: Ki) and 10 to 100 nM in series [3] (setting [7]).
With `C[C@@H]1C(=O)N[C@H](Cc2ccc(Cl)cc2Cl)C(=O)NCCCc2ccccc2OCCN[C@@H](C2CC2)C(=O)N1C` [compound 314], in series [1] (read-out: EC50), the EC50 lay in the range of 1 to 100 nM. Besides, the Selectivity in series [6] is on record as >5500/1. Moreover, the Ki in series [3] (Table 3B, binding activity at the human ghrelin receptor, read-out: Ki) was in the range of 0.1 to 10 nM; in series [3] (setting [7]), 0.1 to 10 nM.
